Where two headings read alike, the source gives them in different places.
Experiment: 14-day oral gavage toxicokinetic study in rats
Type: in vivo
Settings: male, rat, plasma, po; for concentration at 8 h / concentration at 12 h / concentration at 24 h / concentration at […] / concentration at 0.5 h / concentration at 1 h / concentration at 2 h / concentration at 4 h: rats; for half-life: read-out: t½ (converted)
Description: Plasma was obtained from blood samples collected from rats in a composite sampling scheme, with 3 samples collected per sex, per dose, at each target collection time, as illustrated in Table 21 to Table 25. Samples were collected from the vehicle control group on Day 1 and Day 14 at 3 hour after administration. […] Blood samples were collected in tubes containing K3EDTA as an anticoagulant and placed on ice until processed to plasma via centrifugation. Samples were stored frozen at −80° C. until shipment to the bioanalytical laboratory for analysis.
The following parameters were determined:
Cmax: Maximum observed plasma concentration (ng/mL).
A value of 0 ng/mL was assigned to all values below the lower limit of quantitation (BLQ, <10.0 ng/mL).
AUC(0-inf): Area under the plasma concentration vs. time curve extrapolated from 0 to infinity (ng*h/mL), calculated as AUC(0-t)+AUC(t-inf) where AUC(t-inf) is calculated as last measurable concentration (CLast) divided by ke, where ke is the elimination rate constant determined by linear regression of the last three analytically measured points on the log plasma concentration vs. time curve. The selection criteria of the data points for inclusion in the calculation of ke required that at least three data points representing the terminal phase (after Tmax) were regressed and that R2≧0.850 when rounded.
CL: Clearance (L/h/kg), calculated as the dose divided by AUC(0-t).
Vd: Volume of distribution (L/kg), calculated as dose divided by the product of ke and AUC(0-inf).
Vdss: Steady state volume of distribution (L/kg), calculated as clearance […] mean residence time, where mean residence time is calculated as the area under the first moment curve divided by AUC(0-t).
t½: Elimination half-life (h), calculated as ln(2)/ke, where ke is the elimination rate constant determined by linear regression. Half-life was defined as not determined if regression criteria (specified in AUC(0-inf) above) were not met.
Cmax/Dose: Normalized Cmax, calculated as Cmax divided by total dose.
AUC/Dose: Normalized AUC, calculated as AUC(0-t) divided by total dose.
ii. Statistical Analysis Mean and standard deviation (SD) were calculated in Watson. Values of BLQ were assigned a value of 0 ng/mL for mean calculations. Concentration values and derived TK parameters were reported to three significant figures.

[1] = 15 mg/kg, oral 15 mg/kg, Study Day 1, Male
[2] = 15 mg/kg, oral 15 mg/kg, Study Day 14, Male
[3] = 30 mg/kg, oral 30 mg/kg, Study Day 1, Male

In the case of `CN1CCN(c2ccc(Nc3ncc4cc5n(c4n3)C3(CCCCC3)CNC5=O)nc2)CC1` [Compound 1, 2′-((5-(4-methylpiperazin-1-yl)pyridin-2-yl)amino)-7′,8′-dihydro-6′H-spiro[cyclohexane-1,9′-pyrazino[1′,2′:1,5]pyrrolo[2,3-d]pyrimidin]-6′-one], the concentration at 8 h (15 mg/kg, Mean Compound 1 Plasma Concentration, oral 15 mg/kg, Day 1, 8 h, Male) is reported as 1020 ng/mL, the concentration at 12 h (15 mg/kg, Mean Compound 1 Plasma Concentration, oral 15 mg/kg, Day 1, 12 h, Male) is reported as 618 ng/mL and the concentration at 24 h (15 mg/kg, Mean Compound 1 Plasma Concentration, oral 15 mg/kg, Day 1, 24 h, Male) is reported as 84.5 ng/mL. For the same compound, the concentration at […] (15 mg/kg, Mean Compound 1 Plasma Concentration, oral 15 mg/kg, Day 1, […], Male) was 35.6 ng/mL, the concentration at 0.5 h (15 mg/kg, Mean Compound 1 Plasma Concentration, oral 15 mg/kg, Day 14, 0.5 h, Male) was 740 ng/mL and the concentration at 1 h (15 mg/kg, Mean Compound 1 Plasma Concentration, oral 15 mg/kg, Day 14, 1 h, Male) was 842 ng/mL. It also gave a concentration at 2 h (15 mg/kg, Mean Compound 1 Plasma Concentration, oral 15 mg/kg, Day 14, 2 h, Male) of 1320 ng/mL, a concentration at 4 h (15 mg/kg, Mean Compound 1 Plasma Concentration, oral 15 mg/kg, Day 14, 4 h, Male) of 1080 ng/mL and a concentration at 8 h (15 mg/kg, Mean Compound 1 Plasma Concentration, oral 15 mg/kg, Day 14, 8 h, Male) of 1170 ng/mL. The concentration at 12 h (15 mg/kg, Mean Compound 1 Plasma Concentration, oral 15 mg/kg, Day 14, 12 h, Male) was 626 ng/mL, the concentration at 24 h (15 mg/kg, Mean Compound 1 Plasma Concentration, oral 15 mg/kg, Day 14, 24 h, Male) was 60.6 ng/mL and the concentration at […] (15 mg/kg, Mean Compound 1 Plasma Concentration, oral 15 mg/kg, Day 14, […], Male) was 107 ng/mL. The AUC(0-inf) [1] was 16000 ng·h/mL, the AUC(0-t) [1] was 15500 ng·h/mL and the Cmax [1] was 1160 ng/mL. It also gave a Tmax [1] of 4 h, a half-life [1] of 4.39 h and an AUC(0-t) [2] of 16300 ng·h/mL. For the same compound, the Cmax [2] was 1320 ng/mL, the Tmax [2] was 2 h and the half-life [2] was 3.7 h. It also gave a concentration at 0.5 h (30 mg/kg, Individual Compound 1 Plasma Concentration, daily oral 30 mg/kg, Day 1, Male, 0.5 h) of 1450 ng/mL, a concentration at 1 h (30 mg/kg, Individual Compound 1 Plasma Concentration, daily oral 30 mg/kg, Day 1, Male, 1 h) of 1620 ng/mL and a concentration at 2 h (30 mg/kg, Individual Compound 1 Plasma Concentration, daily oral 30 mg/kg, Day 1, Male, 2 h) of 1810 ng/mL. For the same compound, the concentration at 4 h (30 mg/kg, Individual Compound 1 Plasma Concentration, daily oral 30 mg/kg, Day 1, Male, 4 h) was 2660 ng/mL, the concentration at 8 h (30 mg/kg, Individual Compound 1 Plasma Concentration, daily oral 30 mg/kg, Day 1, Male, 8 h) was 2000 ng/mL and the concentration at 12 h (30 mg/kg, Individual Compound 1 Plasma Concentration, daily oral 30 mg/kg, Day 1, Male, 12 h) was 1930 ng/mL. For the same compound, the concentration at 24 h (30 mg/kg, Individual Compound 1 Plasma Concentration, daily oral 30 mg/kg, Day 1, Male, 24 h) was 280 ng/mL, the concentration at 0.5 h (30 mg/kg, Individual Compound 1 Plasma Concentration, daily oral 30 mg/kg, Day 14, Male, 0.5 h) was 977 ng/mL and the concentration at 2 h (30 mg/kg, Individual Compound 1 Plasma Concentration, daily oral 30 mg/kg, Day 14, Male, 2 h) was 1630 ng/mL. It also gave a concentration at 4 h (30 mg/kg, Individual Compound 1 Plasma Concentration, daily oral 30 mg/kg, Day 14, Male, 4 h) of 2080 ng/mL, a concentration at 8 h (30 mg/kg, Individual Compound 1 Plasma Concentration, daily oral 30 mg/kg, Day 14, Male, 8 h) of 1750 ng/mL and a concentration at 12 h (30 mg/kg, Individual Compound 1 Plasma Concentration, daily oral 30 mg/kg, Day 14, Male, 12 h) of 1230 ng/mL. For the same compound, the concentration at 24 h (30 mg/kg, Individual Compound 1 Plasma Concentration, daily oral 30 mg/kg, Day 14, Male, 24 h) was 208 ng/mL, the concentration at […] (30 mg/kg, Individual Compound 1 Plasma Concentration, daily oral 30 mg/kg, Day 14, Male, […]) was 197 ng/mL and the concentration at 0.5 h (30 mg/kg, Mean Compound 1 Plasma Concentration, oral 30 mg/kg, Day 1, 0.5 h, Male) was 1420 ng/mL. The concentration at 1 h (30 mg/kg, Mean Compound 1 Plasma Concentration, oral 30 mg/kg, Day 1, 1 h, Male) was 1400 ng/mL, the concentration at 2 h (30 mg/kg, Mean Compound 1 Plasma Concentration, oral 30 mg/kg, Day 1, 2 h, Male) was 1620 ng/mL and the concentration at 4 h (30 mg/kg, Mean Compound 1 Plasma Concentration, oral 30 mg/kg, Day 1, 4 h, Male) was 2240 ng/mL. The concentration at 8 h (30 mg/kg, Mean Compound 1 Plasma Concentration, oral 30 mg/kg, Day 1, 8 h, Male) was 1860 ng/mL, the concentration at 24 h (30 mg/kg, Mean Compound 1 Plasma Concentration, oral 30 mg/kg, Day 1, 24 h, Male) was 234 ng/mL and the concentration at […] (30 mg/kg, Mean Compound 1 Plasma Concentration, oral 30 mg/kg, Day 1, […], Male) was 208 ng/mL. The concentration at 0.5 h (30 mg/kg, Mean Compound 1 Plasma Concentration, oral 30 mg/kg, Day 14, 0.5 h, Male) was 993 ng/mL, the concentration at 1 h (30 mg/kg, Mean Compound 1 Plasma Concentration, oral 30 mg/kg, Day 14, 1 h, Male) was 1530 ng/mL and the concentration at 2 h (30 mg/kg, Mean Compound 1 Plasma Concentration, oral 30 mg/kg, Day 14, 2 h, Male) was 1590 ng/mL. It also gave a concentration at 4 h (30 mg/kg, Mean Compound 1 Plasma Concentration, oral 30 mg/kg, Day 14, 4 h, Male) of 2030 ng/mL, a concentration at 8 h (30 mg/kg, Mean Compound 1 Plasma Concentration, oral 30 mg/kg, Day 14, 8 h, Male) of 1880 ng/mL and a concentration at 12 h (30 mg/kg, Mean Compound 1 Plasma Concentration, oral 30 mg/kg, Day 14, 12 h, Male) of 1300 ng/mL. For the same compound, the concentration at […] (30 mg/kg, Mean Compound 1 Plasma Concentration, oral 30 mg/kg, Day 14, […], Male) was 207 ng/mL, the AUC(0-inf) [3] was 34700 ng·h/mL and the AUC(0-t) [3] was 33000 ng·h/mL. For the same compound, the Cmax [3] was 2240 ng/mL, the Tmax [3] was 4 h and the half-life [3] was 5.05 h. For the same compound, the AUC(0-inf) (30 mg/kg, oral 30 mg/kg, Study Day 14, Male) was 30700 ng·h/mL.

Reference: patent US20160220569A1, “CDK4/6 Inhibitor Dosage Formulations For The Protection Of Hematopoietic Stem And Progenitor Cells During Chemotherapy” (G1 Therapeutics, Inc., priority 2015, published 2016)
